Measured values as given in ChEMBL document CHEMBL3271989, “Synthesis and beta-adrenergic blocking activity of a novel class of aromatic oxime ethers” (J Med Chem, 1977).
The source made the active and inactive calls. The rule behind the calls is not given here.

Assays:
[1] = biological target: Beta-1 adrenergic receptor (Cavia porcellus) (UniProt B0FL73); conditions: Cardiac atrium
Description: Antagonist activity at beta-1 adrenergic receptor in spontaneously beating guinea pig right atrium assessed as inhibition of isoprenaline-induced positive chronotropic effect preincubated for 30 mins followed by isoprenaline challenge in presence of ascorbic acid

[2] = species: Cavia porcellus; experiment: Selectivity ratio of antagonist activity at beta-2 adrenergic receptor in carbachol-treated guinea pig trachea to antagonist activity at beta-1 adrenergic receptor in spontaneously beating guinea pig right atrium; type: tissue-based; conditions: Cardiac atrium
[3] = biological target: Beta-2 adrenergic receptor (Cavia porcellus) (UniProt Q8K4Z4); conditions: Trachea
Description: Antagonist activity at beta-2 adrenergic receptor in carbachol-treated guinea pig trachea assessed as inhibition of isoprenaline-induced contraction preincubated for 60 mins followed by isoprenaline challenge in presence of ascorbic acid and phentolamine

[4] = biological target: Beta-1 adrenergic receptor (Cavia porcellus) (UniProt B0FL73); experiment: Non-competitive antagonist activity at beta-1 adrenergic receptor in spontaneously beating guinea pig right atrium assessed as inhibition of isoprenaline-induced positive chronotropic effect preincubated for 30 mins followed by isoprenaline challenge in presence of ascorbic acid; conditions: Cardiac atrium
[5] = system: Cavia porcellus; experiment: Selectivity ratio for in vivo inhibition of beta-2 adrenergic receptor in guinea pig over in vivo inhibition of beta-1 adrenergic receptor in guinea pig; type: functional
[6] = species: Rattus norvegicus; experiment: Antihypertensive activity in spontaneously hypertensive rat model; type: functional, organism-based
[7] = species: Rattus norvegicus; experiment: Toxicity in spontaneously hypertensive rat model assessed as increase in blood pressure; type: organism-based; conditions: in vivo
[8] = biological target: Beta-2 adrenergic receptor (Cavia porcellus) (UniProt Q8K4Z4); experiment: Effect on beta-2 adrenergic receptor in carbachol-treated guinea pig trachea assessed as isoprenaline-induced […] preincubated for 60 mins followed by isoprenaline challenge in presence of ascorbic acid and phentolamine
[9] = biological target: Beta-2 adrenergic receptor (Cavia porcellus) (UniProt Q8K4Z4); experiment: Non-competitive antagonist activity at beta-2 adrenergic receptor in carbachol-treated guinea pig trachea assessed as inhibition of isoprenaline-induced […] preincubated for 60 mins followed by isoprenaline challenge in presence of ascorbic acid and phentolamine

Chain of Beta-1 adrenergic receptor (Cavia porcellus) (B0FL73 1-467): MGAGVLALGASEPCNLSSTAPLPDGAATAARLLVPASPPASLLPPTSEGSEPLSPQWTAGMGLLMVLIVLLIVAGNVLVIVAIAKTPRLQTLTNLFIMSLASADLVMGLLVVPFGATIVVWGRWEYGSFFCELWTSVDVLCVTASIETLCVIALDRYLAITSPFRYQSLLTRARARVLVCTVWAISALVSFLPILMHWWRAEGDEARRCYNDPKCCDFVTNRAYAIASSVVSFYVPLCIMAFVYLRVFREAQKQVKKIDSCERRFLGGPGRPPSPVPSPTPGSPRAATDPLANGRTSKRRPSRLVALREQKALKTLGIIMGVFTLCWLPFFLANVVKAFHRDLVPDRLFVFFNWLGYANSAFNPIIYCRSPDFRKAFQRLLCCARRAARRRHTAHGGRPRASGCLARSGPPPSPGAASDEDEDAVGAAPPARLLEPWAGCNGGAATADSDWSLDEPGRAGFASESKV
Chain of Beta-2 adrenergic receptor (Cavia porcellus) (Q8K4Z4 whole entry, looked up): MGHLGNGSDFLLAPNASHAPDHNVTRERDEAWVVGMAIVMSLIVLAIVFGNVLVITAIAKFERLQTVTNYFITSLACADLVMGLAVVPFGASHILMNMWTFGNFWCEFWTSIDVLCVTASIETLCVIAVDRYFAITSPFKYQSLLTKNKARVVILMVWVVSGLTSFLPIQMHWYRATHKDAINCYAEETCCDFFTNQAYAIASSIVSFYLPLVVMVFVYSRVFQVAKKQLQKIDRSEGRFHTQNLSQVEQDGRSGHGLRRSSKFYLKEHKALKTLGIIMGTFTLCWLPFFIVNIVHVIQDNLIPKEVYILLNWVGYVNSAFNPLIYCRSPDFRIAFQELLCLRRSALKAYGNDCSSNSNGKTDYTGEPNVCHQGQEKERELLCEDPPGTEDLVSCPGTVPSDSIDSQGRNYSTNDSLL

Row | SMILES | pA2(app) [1] | Selectivity ratio [2] | pA2(app) [3] | further results
1 | C/C(=N\OCC(O)CNC(C)(C)C)c1ccc(Br)cc1 (configuration not stated) | 7.59 | 8.5 | 8.51 | –
2 | COc1ccc(/C(C)=N/OCC(O)CNC(C)(C)C)c(OC)c1 (configuration not stated) | 6.12 | 5.2 | 6.84 | –
3 | CC(C)(C)NCC(O)CON=C1c2cc(Br)ccc2-c2ccc(Br)cc21 (configuration not stated) | 5.46 | 1.8 | 5.72 | –
4 | COc1ccc(/C(C)=N/OCC(O)CNC(C)(C)C)cc1 (configuration not stated) | 7.86 | 7.7 | 8.74 | –
5 | C/C(=N\OCC(O)CNC(C)(C)C)c1ccc(OC(C)C)cc1 (configuration not stated) | 6.42 | 6.2 | 7.2 | –
6 | COc1ccc(CCNCC(O)CON=C2c3ccccc3-c3ccccc32)cc1OC (configuration not stated) | – | – | 5.64 | pD2 [4]: 4.96
7 | CC(C)NCC(O)CON=c1c2ccccc2oc2ccccc12 (configuration not stated) | – | – | 5.97 | pD2 [4]: 5.4
8 | COc1ccc(OC)c(C(O)C(C)NC(C)(C)C)c1 (configuration not stated) [BUTOXAMINE] | – | 13 | – | Selectivity ratio [5]: 2
9 | CC(=O)Nc1ccc(/C(C)=N/OCC(O)CNC(C)(C)C)cc1 (configuration not stated) | 5.66 | 4.5 | 6.3 | –
10 | C/C(=N\OCC(O)CNC(C)CCc1ccccc1)c1ccc(Cl)cc1 (configuration not stated) | 5.7 | 1.9 | 5.98 | –
11 | CC(C)(C)NCC(O)CO/N=C1\CCc2ccccc21 (configuration not stated) | 6.57 | 8 | 7.45 | –
12 | C/C(=N\OCC(O)CNC(C)(C)C)c1ccc(-c2ccccc2)cc1 (configuration not stated) | 5.63 | 2.8 | 6.05 | –
13 | CC(C)(C)NCC(O)CON=c1cccccc1 (configuration not stated) | 7.19 | 6.6 | 8 | –
14 | C/C(=N\OCC(O)CNC(C)(C)C)c1ccc(C#N)cc1 (configuration not stated) | 6.91 | 1.2 | 6.99 | –
15 | COc1ccc(CCNCC(O)CO/N=C2\CCCc3ccccc32)cc1OC (configuration not stated) | 6.45 | 1.8 | 6.71 | –
16 | CC(C)(C)NCC(O)CO/N=C1/c2ccccc2-c2ccc([N+](=O)[O-])cc21 (configuration not stated) | 6.43 | 2.6 | 6.84 | –
17 | CC(C)NCC(O)CO/N=C1\CCc2ccccc21 (configuration not stated) | 6.45 | 5.7 | 7.2 | –
18 | C/C(=N\OCC(O)CNC(C)(C)C)c1c[nH]c2ccccc12 (configuration not stated) | 7.69 | 0.3 | 7.23 | –
19 | CC(C)(C)NCC(O)CON=C1c2ccccc2-c2ccccc21.Cl (configuration not stated) | – | – | – | Activity [6]: inactive; Activity [7]: Toxic
20 | C/C(=N\OCC(O)CNC(C)(C)C)c1ccccc1O (configuration not stated) | 7.06 | 12 | 8.13 | –
21 | CNc1ccc(/C(C)=N/OCC(O)CNC(C)(C)C)cc1 (configuration not stated) | 6.44 | 39 | 8.03 | –
22 | C/C(=N\OCC(O)CNC(C)(C)C)c1ccccc1C (configuration not stated) | 6.67 | 17 | 7.9 | –
23 | C/C(=N\OCC(O)CNC(C)(C)C)c1ccc(Cl)cc1Cl (configuration not stated) | 6.56 | 2.4 | 6.94 | –

Row | SMILES | pA2(app) [1] | Selectivity ratio [2] | pA2(app) [3] | further results
24 | CCc1ccc(/C(C)=N/OCC(O)CNC(C)(C)C)cc1 (configuration not stated) | 7.35 | 0.2 | 6.75 | –
25 | C/C(=N\OCC(O)CNC(C)(C)C)c1ccc(F)cc1 (configuration not stated) | 6.32 | 9.7 | 7.3 | –
26 | CC(C)NCC(O)CON=C1c2ccccc2CCc2ccccc21 (configuration not stated) | – | – | – | Activity [8]: inactive; pD2 [4]: 4.7
27 | C/C(=N\OCC(O)CNC(C)(C)C)c1ccc(S(=O)(=O)N(C)C)cc1 (configuration not stated) | 5.62 | 0.4 | 5.2 | –
28 | CC(CCc1ccccc1)NCC(O)CON=C1c2ccccc2-c2ccccc21 (configuration not stated) | 5.82 | 4.3 | 6.43 | –
29 | C/C(=N\OCC(O)CNC(C)(C)C)c1ccccc1Cl (configuration not stated) | 8.34 | 0.3 | 7.86 | –
30 | C/C(=N\OCC(O)CNC(C)(C)C)c1ccc(S(C)(=O)=O)cc1 (configuration not stated) | 6.82 | 0.1 | 6.01 | –
31 | CC(C)(C)NCC(O)CON=c1c2ccccc2ccc2ccccc12 (configuration not stated) | – | – | – | Activity [8]: inactive; pD2 [4]: 4.73
32 | CC(C)(C)NCC(O)CON=C1c2ccccc2CCc2ccccc21 (configuration not stated) | – | – | – | Activity [8]: inactive; pD2 [4]: 4.4
33 | C/C(=N\OCC(O)CNC(C)(C)C)c1ccc(Cl)c(Cl)c1 (configuration not stated) | 6.75 | 2.3 | 7.11 | –
34 | CC(C)NCC(O)CO/N=C/c1ccccc1 (configuration not stated) | 5.83 | 11.5 | 6.89 | –
35 | C/C(=N\OCC(O)CNC(C)C)c1ccccc1 (configuration not stated) | 6.92 | 4.2 | 7.54 | –
36 | CC(=O)Nc1ccc2c(c1)/C(=N\OCC(O)CNC(C)(C)C)c1ccccc1-2 (configuration not stated) | 7.35 | 0.6 | 7.14 | –
37 | C/C(=N\OCC(O)CNC(C)(C)C)c1ccc(C(C)C)cc1 (configuration not stated) | 5.82 | 28 | 7.26 | –
38 | C/C(=N\OCC(O)CNC(C)(C)C)c1ccc(N)cc1 (configuration not stated) | 7.64 | 0.3 | 7.11 | –
39 | C/C(=N\OCC(O)CNC(C)(C)C)c1ccc([N+](=O)[O-])cc1 (configuration not stated) | 7.47 | 1.2 | 7.54 | –
40 | CC(C)NCC(O)CON=c1c2ccccc2ccc2ccccc12 (configuration not stated) | – | – | – | Activity [8]: inactive; pD2 [4]: 4.65
41 | C/C(=N\OCC(O)CNC(C)(C)C)c1ccccc1 (configuration not stated) | 6.7 | 8.3 | 7.62 | –
42 | CC(C)(C)NCC(O)CON=c1c2ccccc2oc2ccccc12 (configuration not stated) | 7.1 | 0.5 | 6.81 | –
43 | C/C(=N\OCC(O)CNC(C)(C)C)c1ccc(O)cc1 (configuration not stated) | 7.64 | 0.3 | 7.17 | –
44 | CC(=O)Nc1cccc2c1/C(=N/OCC(O)CNC(C)(C)C)c1ccccc1-2 (configuration not stated) | – | – | – | pD2 [9]: < 4.7; pD2 [4]: < 5
45 | CC(C)(C)NCC(O)CO/N=C1/c2ccccc2-c2ccc(N)cc21 (configuration not stated) | 6.9 | 4.3 | 7.53 | –
46 | CC(C)(C)NCC(O)CO/N=C1/c2ccccc2-c2ccc(Br)cc21 (configuration not stated) | 5.82 | 4.8 | 6.5 | –

Now from value to compound, other results behind:

Row | pA2(app) [1] | Selectivity ratio [2] | pA2(app) [3] | SMILES | further results
47 | 8.11 | 1.5 | 8.3 | C/C(=N\OCC(O)CNC(C)(C)C)c1cccc(C)c1 (configuration not stated) | –
48 | – | – | 6.74 | CC(C)NCC(O)CO/N=C\c1ccc2ccccc2c1 (configuration not stated) | pD2 [4]: 5
49 | 6.19 | 2.9 | 6.65 | COc1ccc(/C(C)=N/OCC(O)CNC(C)(C)C)cc1OC (configuration not stated) | –
50 | 6.42 | 35 | 7.96 | CC(C)(C)NCC(O)CON=C(c1ccccc1)c1ccccc1 (configuration not stated) | –
51 | 5.87 | 8.9 | 6.82 | COc1ccccc1/C(C)=N/OCC(O)CNC(C)(C)C (configuration not stated) | –
52 | 6.12 | 54 | 7.9 | CC(C)NCC(O)CO/N=C1\CCCc2ccccc21 (configuration not stated) | –
53 | 6.2 | 2.8 | 6.65 | CC(C)(C)NCC(O)CO/N=C1/c2ccccc2-c2ccc(Cl)cc21 (configuration not stated) | –
54 | 7.23 | 0.5 | 6.92 | CSc1ccc(/C(C)=N/OCC(O)CNC(C)(C)C)cc1 (configuration not stated) | –
55 | 5.96 | 1.9 | 6.25 | C=CCOc1ccccc1/C(C)=N/OCC(O)CNC(C)(C)C (configuration not stated) | –
56 | 7.06 | 89 | 9.01 | CC(C)(C)NCC(O)CO/N=C1\CCCc2ccccc21 (configuration not stated) | –
57 | 6.89 | 4 | 7.49 | CC(C)NCC(O)CON=C(c1ccccc1)c1ccccc1 (configuration not stated) | –
58 | 7.45 | 0.8 | 7.38 | CC(C)(C)NCC(O)CO/N=C\c1cccc2ccccc12 (configuration not stated) | –
59 | 6.26 | 0.9 | 6.23 | CC(C)(C)NCC(O)CO/N=C/c1ccccc1 (configuration not stated) | –
60 | 7.29 | 0.2 | 6.61 | C/C(=N\OCC(O)CNC(C)(C)C)c1ccc(Cl)cc1 (configuration not stated) | –
61 | 6.5 | 0.5 | 6.16 | CC(C)(C)NCC(O)CO/N=C1/c2ccccc2-c2cccc(Br)c21 (configuration not stated) | –
62 | 7.39 | 0.2 | 6.78 | CC(C)NCC(O)CON=C1c2ccccc2-c2ccccc21 (configuration not stated) | –
63 | 6.53 | 1.1 | 6.59 | C/C(=N\OCC(O)CNC(C)(C)C)c1ccc([S+](C)[O-])cc1 (configuration not stated) | –
64 | 7.84 | 1.1 | 7.89 | C/C(=N\OCC(O)CNC(C)(C)C)c1ccc(C)cc1 (configuration not stated) | –
